Measurements: patent US20240390298A1, “CYCLOHEXYL BETA-HYDROXY ALKYL AMINES AND MEDICAL USES THEREOF” (ATROGI AB, priority 2021, published 2024)
Structures can show the parent of a compound that is named as a salt.

Assays:
L6-myotubes [1] = experiment: Glucose uptake in differentiated L6-myotubes (3H-2-deoxyglucose), compared to isoproterenol; format: cell-based; conditions: agonist 1×10^−5 M, 50 nM 3H-2-deoxyglucose; for Emax at 10 µM: read-out: Biological example 1: glucose uptake, activity compared to that of isoproterenol
Method in brief: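 Serum-starved differentiated L6 myotubes stimulated with agonist at 1×10^−5 M for 1 h 40 min, re-dosed in glucose-free medium for 20 min, then given 50 nM ^3H-2-deoxyglucose for 10 min. Uptake read by β-counting of NaOH lysates; activity expressed relative to isoproterenol.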

L6-myotubes [2] = experiment: Measurement of intracellular cAMP levels in differentiated L6 cells (alpha screen cAMP kit), compared to isoproterenol; format: cell-based; conditions: agonist 1×10^−5 M, 15 min; for Emax at 10 µM: Rattus norvegicus, L6, 0.25 h, read-out: Biological example 2: intracellular cAMP levels, activity compared to that of isoproterenol
Method in brief: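 L6 myoblasts were differentiated into myotubes over 7 days in 2% FBS, then serum-starved overnight. Agonist at 1×10^−5 M final was applied for 15 min in HBSS with 1% BSA, 5 mM HEPES and 1 mM IBMX, pH 7.4. After ethanol extraction and lysis, cAMP was quantified by AlphaScreen, with activity expressed relative to isoproterenol.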

| Compound | Biological example 1: glucose uptake, activity compared to that of isoproterenol (L6-myotubes [1]) | Emax at 10 µM (L6-myotubes [2]) | Emax at 10 µM (L6-myotubes [1]) | Biological example 2: intracellular cAMP levels, activity compared to that of isoproterenol (L6-myotubes [2]) |
| --- | --- | --- | --- | --- |
| COC(=O)[C@H]1CC[C@H](C(C)(C)NC[C@H](O)c2cccc(F)c2)CC1 [Example 99, Methyl (1R,4r)-4-(2-(((R)-2-(3-fluorophenyl)-2-hydroxyethyl)amino)propan-2-yl)cyclohexane-1-carboxylate] | + + + | < 25% | – | – |
| CC(=O)N[C@H]1CC[C@H](CNC[C@H](O)c2cncc(F)c2)CC1 [Example 68, N-((1R,4r)-4-((((R)-2-(5-Fluoropyridin-3-yl)-2-hydroxyethyl)amino)-methyl)cyclohexyl)acetamide] | – | < 25% | 25 to 50% | – |
| CC(C)(NC[C@H](O)c1cccc(F)c1)[C@H]1CC[C@@H](C(=O)O)CC1 [Example 98, (1S,4s)-4-(2-(((R)-2-(3-Fluorophenyl)-2-hydroxyethyl)amino)propan-2-yl)-cyclohexane-1-carboxylic acid] | – | < 25% | 25 to 50% | – |
| CS(=O)(=O)N[C@H]1CC[C@@H](CNC[C@H](O)c2cccc(F)c2)CC1 [Example 77] | + + | < 25% | – | – |
| CC(C)(C[C@H]1CC[C@H](NS(C)(=O)=O)CC1)NC[C@@H](O)c1cccc(C#N)n1 [Example 136, N-((1R,4r)-4-(2-(((R)-2-(6-Cyanopyridin-2-yl)-2-hydroxyethyl)amino)-2-methylpropyl)cyclohexyl)methanesulfonamide] | + + | < 25% | – | – |
| O[C@@H](CNC[C@H]1CC[C@@H](O)CC1)c1cncc(F)c1 [Example 28, (1S,4s)-4-((((R)-2-(5-Fluoropyridin-3-yl)-2-hydroxyethyl)amino)-methyl)cyclohexan-1-ol] | – | < 25% | 25 to 50% | – |
| CC(C)(NC[C@H](O)c1cncc(F)c1)[C@H]1CC[C@@H](OCc2ccccc2)CC1 [Example 35, (R)-2-((2-((1s,4S)-4-(Benzyloxy)cyclohexyl)propan-2-yl)amino)-1-(5-fluoropyridin-3-yl)ethan-1-ol] | + + | < 25% | – | – |
| O[C@@H](CNCCC[C@H]1CC[C@@H](O)CC1)c1cccc(F)c1 [Example 59, (1R,4s)-4-(3-(((R)-2-(3-Fluorophenyl)-2-hydroxyethyl)amino)propyl)-cyclohexan-1-ol] | – | < 25% | 25 to 50% | – |
| O[C@@H](CNCC[C@H]1CC[C@H](O)CC1)c1cncc(F)c1 [Example 48, (1R,4r)-4-(2-(((R)-2-(5-Fluoropyridin-3-yl)-2-hydroxyethyl)amino)-ethyl)cyclohexan-1-ol] | – | < 25% | 25 to 50% | – |
| CC(C)(C[C@H]1CC[C@H](NC(=O)C(C)(C)C)CC1)NC[C@H](O)c1cccc(F)c1.Cl [Example 154, N-((1R,4r)-4-(2-(((R)-2-(3-Fluorophenyl)-2-hydroxyethyl)amino)-2-methylpropyl)cyclohexyl)pivalamide hydrochloride] | + + + | 25 to 50% | – | – |
| CO[C@H]1CC[C@@H](C(C)(C)NC[C@H](O)c2cncc(F)c2)CC1 [Example 6, (R)-1-(5-fluoropyridin-3-yl)-2-((2-((1s,4S)-4-methoxycyclohexyl)propan-2-yl)amino)ethan-1-ol] | – | < 25% | < 25% | – |
| CC(C)(C[C@H]1CC[C@@H](C#N)CC1)NC[C@H](O)c1cccc(F)c1 [Example 129, (1S,4s)-4-(2-(((R)-2-(3-Fluorophenyl)-2-hydroxyethyl)amino)-2-methylpropyl)cyclohexane-1-carbonitrile] | + + + | 25 to 50% | – | – |
| CO[C@H]1CCC[C@@H](C(C)(C)NC[C@H](O)c2cccc(F)c2)C1 (single isomer, unassigned) [Example 120] | + + + | < 25% | – | – |
| CO[C@@H]1CCC[C@H](C(C)(C)NC[C@H](O)c2cncc(F)c2)C1 (single isomer, unassigned) [Example 121] | + + | < 25% | – | – |
| CN([C@H]1CC[C@@H](CC(C)(C)NC[C@H](O)c2cncc(F)c2)CC1)S(C)(=O)=O.Cl [Example 185, N-((1S,4s)-4-(2-(((R)-2-(5-Fluoropyridin-3-yl)-2-hydroxyethyl)amino)-2-methylpropyl)cyclohexyl)-N-methylmethanesulfonamide] | + + + | < 25% | – | – |
| CC(C)(C[C@H]1CC[C@@H](O)CC1)NC[C@H](O)c1cccc(F)c1.Cl [Example 49, (1S,4s)-4-(2-(((R)-2-(3-Fluorophenyl)-2-hydroxyethyl)amino)-2-methylpropyl)cyclohexan-1-ol hydrochloride] | + + | < 25% | – | – |
| CN(C)S(=O)(=O)[C@H]1CC[C@@H](CC(C)(C)NC[C@H](O)c2cncc(F)c2)CC1 [Example 189, (1S,4s)-4-(2-(((R)-2-(5-Fluoropyridin-3-yl)-2-hydroxyethyl)amino)-2-methylpropyl)-N,N-dimethylcyclohexane-1-sulfonamide dihydrochloride] | + + + | – | – | + + |
| CC(=O)N[C@H]1CC[C@H](CNC[C@H](O)c2cccc(F)c2)CC1 [Example 67, N-((1R,4r)-4-((((R)-2-(3-Fluorophenyl)-2-hydroxyethyl)amino)methyl)-cyclohexyl)acetamide] | – | < 25% | 25 to 50% | – |
| O[C@@H](CNCC[C@H]1CC[C@H](OCc2ccccc2)CC1)c1cccc(F)c1 [Example 45, (R)-2-((2-((1r,4R)-4-(Benzyloxy)cyclohexyl)ethyl)amino)-1-(3-fluoro-phenyl)ethan-1-ol] | – | < 25% | 25 to 50% | – |
| O=C(N[C@H]1CC[C@H](CNC[C@H](O)c2cncc(F)c2)CC1)c1ccccc1 [Example 70, N-((1R,4r)-4-((((R)-2-(5-Fluoropyridin-3-yl)-2-hydroxyethyl)amino)methyl)-cyclohexyl)benzamide] | – | < 25% | 25 to 50% | – |
| CC(C)(NC[C@H](O)c1cccc(F)c1)[C@H]1CC[C@H](OCC(=O)O)CC1 [Example 126, 2-(((1R,4r)-4-(2-(((R)-2-(3-Fluorophenyl)-2-hydroxyethyl)amino)propan-2-yl)cyclohexyl)oxy)acetic acid] | + + | < 25% | – | – |
| CO[C@H]1CC[C@@H](CCNC[C@H](O)c2cncc(F)c2)CC1 [Example 10, (R)-1-(5-Fluoropyridin-3-yl)-2-((2-((1s,4S)-4-methoxycyclohexyl)ethyl)-amino)ethan-1-ol] | + + + | < 25% | – | – |
| CC(C)(NC[C@H](O)c1cccc(F)c1)[C@H]1CC[C@H](O)CC1 [Example 38, (1R,4r)-4-(2-(((R)-2-(3-Fluorophenyl)-2-hydroxyethyl)amino)propan-2-yl)cyclohexan-1-ol] | + + | < 25% | – | – |
| CN([C@H]1CC[C@H](CC(C)(C)NC[C@H](O)c2cncc(F)c2)CC1)S(C)(=O)=O.Cl [Example 183, N-((1R,4r)-4-(2-(((R)-2-(5-Fluoropyridin-3-yl)-2-hydroxyethyl)amino)-2-methylpropyl)cyclohexyl)-N-methylmethanesulfonamide] | + + + | < 25% | – | – |
| CC(=O)N[C@H]1CC[C@@H](CC(C)(C)NC[C@@H](O)c2cccc(C#N)n2)CC1 [Example 137, N-((1S,4s)-4-(2-(((R)-2-(6-Cyanopyridin-2-yl)-2-hydroxyethyl)amino)-2-methylpropyl)cyclohexyl)acetamide] | + + | < 25% | – | – |
| O[C@@H](CNCC[C@H]1CC[C@H](O)CC1)c1cccc(F)c1 [Example 46, (1R,4r)-4-(2-(((R)-2-(3-Fluorophenyl)-2-hydroxyethyl)amino)ethyl)-cyclohexan-1-ol] | – | < 25% | 25 to 50% | – |
| CC(=O)N[C@H]1CC[C@@H](CNC[C@H](O)c2cncc(F)c2)CC1 [Example 74, N-((1S,4s)-4-((((R)-2-(5-Fluoropyridin-3-yl)-2-hydroxyethyl)amino)-methyl)cyclohexyl)acetamide] | – | < 25% | 25 to 50% | – |
| CO[C@H]1CC[C@@H](CNC[C@H](O)c2cccc(F)c2)CC1 [Example 1, (R)-1-(3-Fluorophenyl)-2-((((1s,4S)-4-methoxycyclohexyl)-methyl)amino)ethan-1-ol] | + + | < 25% | – | – |
| CC(C)(C[C@H]1CC[C@@H](C(=O)O)CC1)NC[C@H](O)c1cncc(F)c1 [Example 106, (1S,4s)-4-(2-(((R)-2-(5-Fluoropyridin-3-yl)-2-hydroxyethyl)amino)-2-methylpropyl)cyclohexane-1-carboxylic acid] | – | < 25% | 25 to 50% | – |
| CC(=O)N[C@H]1CC[C@@H](CC(C)(C)NC[C@H](O)c2cccc(F)c2)CC1 [Example 164, N-((1S,4s)-4-(2-(((R)-2-(3-Fluorophenyl)-2-hydroxyethyl)amino)-2-methylpropyl)cyclohexyl)acetamide] | + + + | < 25% | – | – |
